Like-named read-outs stand apart in the source and are kept apart here.
Assays:
PRMT7 (h) = target: T1, PRMT7 (h) (Homo sapiens, UniProt Q9NVM4); assay: Epigenetic enzyme assay, Methyltransferases (MTs); format: biochemical; settings: read-out: % Inhibition of Control Values
T1 sequence (Q9NVM4 1-692): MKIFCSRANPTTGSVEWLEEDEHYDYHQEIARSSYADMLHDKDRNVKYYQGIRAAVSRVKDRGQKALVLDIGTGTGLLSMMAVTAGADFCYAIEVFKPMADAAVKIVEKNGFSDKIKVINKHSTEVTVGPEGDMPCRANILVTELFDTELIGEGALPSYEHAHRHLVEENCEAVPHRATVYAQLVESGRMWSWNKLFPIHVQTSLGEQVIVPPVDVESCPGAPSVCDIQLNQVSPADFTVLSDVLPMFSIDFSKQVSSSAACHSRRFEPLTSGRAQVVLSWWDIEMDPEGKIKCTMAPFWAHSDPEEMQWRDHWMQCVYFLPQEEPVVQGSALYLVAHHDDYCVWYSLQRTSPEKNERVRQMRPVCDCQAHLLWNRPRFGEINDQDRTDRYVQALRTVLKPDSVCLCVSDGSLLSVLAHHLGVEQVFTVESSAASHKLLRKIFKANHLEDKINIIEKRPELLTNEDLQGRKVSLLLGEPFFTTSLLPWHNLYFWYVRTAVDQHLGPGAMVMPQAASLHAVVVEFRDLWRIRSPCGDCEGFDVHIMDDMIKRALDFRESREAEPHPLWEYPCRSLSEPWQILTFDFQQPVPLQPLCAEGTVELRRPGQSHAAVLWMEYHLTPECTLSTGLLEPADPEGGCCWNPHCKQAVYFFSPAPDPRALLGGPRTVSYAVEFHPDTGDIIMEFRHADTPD

GCN5L2(h) = GCN5L2(h) (Homo sapiens, UniProt Q92830); assay: Epigenetic enzyme assay, Histone acetyltransferases (HATs); format: biochemical; settings: 10 μM; read-out: % Inhibition of Control Values
CYP2C8 = target: T2, CYP2C8 (Homo sapiens, UniProt P10632); assay: Cytochrome P450 Inhibition (CYP panel); format: in vitro ADME; settings: probe paclitaxel
T2 construct: Human liver microsomes; from tissue; host or cells: human liver microsomes
T2 sequence (P10632 1-490): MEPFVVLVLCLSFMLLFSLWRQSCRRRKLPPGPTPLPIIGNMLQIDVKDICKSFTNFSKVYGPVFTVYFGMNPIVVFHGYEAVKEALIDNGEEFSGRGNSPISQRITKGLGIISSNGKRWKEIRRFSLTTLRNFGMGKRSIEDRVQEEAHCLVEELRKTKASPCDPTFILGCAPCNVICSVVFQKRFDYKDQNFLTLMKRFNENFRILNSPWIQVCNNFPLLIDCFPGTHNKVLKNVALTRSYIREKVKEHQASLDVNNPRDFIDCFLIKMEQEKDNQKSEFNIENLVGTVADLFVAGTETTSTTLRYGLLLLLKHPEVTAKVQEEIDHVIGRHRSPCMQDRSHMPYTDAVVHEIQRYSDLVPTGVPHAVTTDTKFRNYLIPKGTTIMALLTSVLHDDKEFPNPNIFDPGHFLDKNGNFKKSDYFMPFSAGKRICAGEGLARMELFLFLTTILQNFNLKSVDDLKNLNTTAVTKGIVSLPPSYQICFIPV

HAT1(h) = target: T3, HAT1(h) (Homo sapiens, UniProt O14929); assay: Epigenetic enzyme assay, Histone acetyltransferases (HATs); format: biochemical; settings: read-out: % Inhibition of Control Values
T3 sequence (O14929 1-419): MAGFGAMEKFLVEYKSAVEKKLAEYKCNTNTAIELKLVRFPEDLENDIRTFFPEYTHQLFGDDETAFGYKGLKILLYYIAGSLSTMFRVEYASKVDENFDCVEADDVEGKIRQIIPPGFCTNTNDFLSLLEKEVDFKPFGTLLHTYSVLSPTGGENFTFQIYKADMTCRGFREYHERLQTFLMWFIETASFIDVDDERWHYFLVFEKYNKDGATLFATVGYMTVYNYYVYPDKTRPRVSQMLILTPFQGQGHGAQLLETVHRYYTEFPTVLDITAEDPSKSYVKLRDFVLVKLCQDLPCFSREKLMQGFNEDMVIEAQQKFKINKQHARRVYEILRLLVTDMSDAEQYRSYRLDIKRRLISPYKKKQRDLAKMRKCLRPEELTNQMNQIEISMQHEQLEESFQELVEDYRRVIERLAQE

[1] = human, human liver microsomes, read-out: % inhibition
[2] = CYP2C8 (paclitaxel sub.), Human liver microsomes, read-out: % Inhibition of Control Values

Sequence of GCN5L2(h) (Q92830 whole entry): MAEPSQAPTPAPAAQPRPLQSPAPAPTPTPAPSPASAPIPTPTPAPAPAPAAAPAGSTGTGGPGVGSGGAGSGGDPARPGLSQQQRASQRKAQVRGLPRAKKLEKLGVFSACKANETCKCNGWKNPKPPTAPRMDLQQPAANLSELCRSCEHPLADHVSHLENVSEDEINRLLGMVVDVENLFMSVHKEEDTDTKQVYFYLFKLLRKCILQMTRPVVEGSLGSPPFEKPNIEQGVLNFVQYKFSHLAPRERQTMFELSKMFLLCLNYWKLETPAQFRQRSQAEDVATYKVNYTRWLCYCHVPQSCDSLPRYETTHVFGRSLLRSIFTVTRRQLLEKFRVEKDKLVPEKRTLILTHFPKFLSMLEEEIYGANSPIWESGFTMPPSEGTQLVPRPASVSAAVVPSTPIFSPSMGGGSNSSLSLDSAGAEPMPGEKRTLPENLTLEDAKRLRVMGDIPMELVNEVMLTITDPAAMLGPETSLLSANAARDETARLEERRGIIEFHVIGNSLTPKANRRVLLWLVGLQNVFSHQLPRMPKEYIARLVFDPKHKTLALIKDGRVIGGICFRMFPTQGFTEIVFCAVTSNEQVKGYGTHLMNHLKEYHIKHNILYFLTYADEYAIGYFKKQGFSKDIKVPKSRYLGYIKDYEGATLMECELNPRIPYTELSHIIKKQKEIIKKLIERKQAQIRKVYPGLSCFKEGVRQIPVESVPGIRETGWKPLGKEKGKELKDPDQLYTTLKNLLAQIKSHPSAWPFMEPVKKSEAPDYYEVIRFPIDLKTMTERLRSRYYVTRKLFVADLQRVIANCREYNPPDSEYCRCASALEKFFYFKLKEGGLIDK

| SMILES | inhibition at 10 µM (PRMT7 (h)) | inhibition at 10 µM (GCN5L2(h)) | inhibition at 1 µM (CYP2C8; [1]) | inhibition at 1 µM (CYP2C8; [2]) | inhibition at 10 µM (CYP2C8; [2]) | inhibition at 10 µM (HAT1(h)) |
| --- | --- | --- | --- | --- | --- | --- |
| CC(C)=CCC[C@H](CO)[C@@H]1CC[C@@H](C)c2c1cc(C)c(O)c2O [Compound 1, 7,8,18-trihydroxyserrulat-14-ene] | -2% | 11% | 12 to 24% | 14% | 76% | -3% |
| CC(C)=CCC[C@@H]1C(O)Oc2c(C)cc(O)c3c2[C@H]1CC[C@H]3C (stereo partly drawn) [Compound 2, 5,18-epoxyserrulat-14-en-8,18-diol] | 0% | 5% | 12 to 24% | 12% | 52% | 3% |
| CC(C)=CCC[C@@H]1COc2c(C)cc(O)c3c2[C@H]1CC[C@H]3C [Compound 3, 5,18-epoxy-8-hydroxyserrulat-14-ene] | -36% | 1% | – | – | – | -3% |
| CC(C)=CCC[C@H](C)[C@@H]1CC[C@@H](C)c2c1cc(C)c(O)c2O [Compound 4, 7,8-dihydroxyserrulat-14-ene] | – | – | 12 to 24% | 24% | 61% | – |

From patent publication US11331299B2, “Medicinal use of serrulatane diterpenes” (The University of Sydney, priority 2016, dated 2022)
